“And” between values parts separate entries of the source, which are not always exact repeats. Equal values may be shown once. Read-outs that look alike come from different tables or passages of the source.
Experiments:
[1] = tested on: GLUT1 Y293I; set-up: method as in PMID 8157690; settings: GLUT1 Y293I vs wild type; cited from earlier work
[2] = molecular target: T1, hGLUT8 (Homo sapiens, UniProt Q9NY64, E7R/E8R); experiment: 2-DG uptake by HEK293 cells overexpressing hGLUT8; type: cell-based
T1 construct: expressed in transfected cells; host or cells: HEK293 (HEK293-FLIP, native hGLUT1 knocked down)
T1 sequence (Q9NY64 1-477 E7R/E8R): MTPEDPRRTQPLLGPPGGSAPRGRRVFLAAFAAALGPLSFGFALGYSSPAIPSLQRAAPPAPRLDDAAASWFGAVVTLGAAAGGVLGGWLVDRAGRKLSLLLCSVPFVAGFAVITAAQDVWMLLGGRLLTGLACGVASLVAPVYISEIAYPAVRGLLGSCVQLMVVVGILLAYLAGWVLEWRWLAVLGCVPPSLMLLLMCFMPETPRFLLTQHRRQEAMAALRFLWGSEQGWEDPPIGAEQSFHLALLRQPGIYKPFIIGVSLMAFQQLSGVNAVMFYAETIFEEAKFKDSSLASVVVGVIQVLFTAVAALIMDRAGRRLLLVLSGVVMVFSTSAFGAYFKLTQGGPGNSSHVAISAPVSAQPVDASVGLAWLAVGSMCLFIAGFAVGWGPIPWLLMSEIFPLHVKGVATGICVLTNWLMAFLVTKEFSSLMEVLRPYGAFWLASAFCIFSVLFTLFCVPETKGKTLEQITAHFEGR
Text: Generation of HEK293 cells overexpressing PfHT and human GLUTs 1–4 were described elsewhere. Briefly, HEK293 cells were transfected with pcDNA3.1 FLII12Pglu-7006 (Addgene), containing the fluorescence resonance energy transfer (FRET) glucose sensor (HEK293-FLIP) and PfHT, human GLUT1 (hGLUT1), hGLUT2, hGLUT3, hGLUT4, hGLUT5 or hGLUT8 using Optifect (Life Technologies) according to manufacturer’s specifications. To increase retention of GLUT8 at the plasma membrane, the dileucine sorting signal E^7E^8XXXLL was modified to R^7R^8XXXLL as described in [17]. Stable transfectants were selected for G418 and hygromycin resistance to select for FRET sensor and hexose transporter, respectively. HEK293-FLIP cells were also used to generate cells stably transfected with FLAG-tagged PfHT (FTPfHT). FLAG tag ([…]) followed by a triple glycine linker and a tobacco etch virus (TEV) protease site (ENLYFQS) followed by a triple glycine linker was added to the N-terminus of PfHT via PCR [18] using Phusion Hot Start II High-Fidelity DNA Polymerase (Fisher Scientific). Single clones were selected by comparing their abilities to transport glucose as assayed via FRET and radiolabeled hexose uptake. In all cell lines, except for HEK293 cells overexpressing hGLUT1 and hGLUT5, native hGLUT1 was knocked down using shRNA as described elsewhere. Transcript levels of the individual GLUTs expressed in each cell line are as described in [13, 15] and in S1 Fig.
Glucose uptake by P. falciparum was performed essentially as described. P. falciparum strain 3D7 was cultured in 100 mm tissue culture dishes (Techno Plastic Products) in a 2% suspension of human erythrocytes and RPMI 1640 medium until reaching > 7.5% parasitemia. Cells were pelleted via centrifugation and resuspended in RPMI 1640 medium. To determine the uptake of radiolabeled glucose into the parasite, parasites were isolated from infected erythrocytes by permeablization with saponin (0.05 w/v), followed by centrifugation, aspiration of supernatant and washing of the pellet 3X with saline solution (135 mM NaCl, 2 mM KCl, 25 mM HEPES, 0.2 mM glucose and 1 mM MgCl2; pH 7.1) to remove cellular debris. WU-1 or DMSO vehicle were added to 100 μl parasites (resuspended in saline) 5 min prior to the addition of 100 μl [^14C]2-DOG (0.2- μCi/ml final concentration). 2-DG uptake was stopped after 2 min by layering the entire reaction over 300 μl of an oil mixture (5:4 mix of dibutyl phthalate / dinonyl phthalate) in Eppendorf tubes and centrifuged at 15,850 × g for 2 mins. The ratio of the estimated intracellular concentration of radiolabel relative to the extracellular concentration were calculated as described. Uptake of radiolabeled hexose into HEK293 cells was measured in glucose-free HBSS as described previously. Briefly, cells were plated at 400,000 cells/well overnight at 37°C in 24-well plates pre-treated with PEI. After 30-min incubation at 37°C in glucose-free HBSS in the presence of vehicle or increasing concentrations of compound, 2-DG uptake was measured in glucose-free HBSS for 4 min at 37°C. Cultures were washed in ice-cold 1X PBS and lysed in 0.1% Triton X-100 in 1X PBS. Radiolabeled hexose uptake was determined by liquid scintillation counting (Ultima Gold, Thermo Fisher) and normalized to total protein per well. Uptake data are plotted as percent uptake relative to vehicle-treated cells. Kinetic analyses were performed using the indicated concentrations of substrate and WU-1, with quenching of uptake after 1 min incubation. Incubation times had been previously determined as being in the linear range of time-dependent radiolabeled hexose uptake (2 min for 2-DG uptake into freed parasites; 2 and 4 min for D-Frc and 2-DG uptake HEK cell lines, respectively). Data were fit by least squares nonlinear regression analysis using GraphPad Prism 6.0 software.

SMILES	increase of Ki by Y293I mutation [1] [fold]	IC50 ([2]; GLUT8, 2-DG Uptake, average of Expt 1-3, read-out: AVE IC50) [µM]	IC50 ([2]; GLUT8, 2-DG Uptake, single experiments Expt 1-3, read-out: IC50)	IC50 ([2]; GLUT8 cell line, read-out: IC50, 2-DG uptake) [µM]	remaining activity at 0.001 µM ([2]; HEK293, 4 min, GLUT8, concentration 0.001 µM, Expt 1-3, read-out: 2-DG Uptake AVE) [%]	remaining activity at 0.3125 µM ([2]; HEK293, 4 min, GLUT8, concentration 0.3125 µM, read-out: 2-DG Uptake AVE) [%]	remaining activity at 0.625 µM ([2]; HEK293, 4 min, GLUT8, concentration 0.6250 µM, read-out: 2-DG Uptake AVE) [%]	remaining activity at 1.25 µM ([2]; HEK293, 4 min, GLUT8, concentration 1.250 µM, read-out: 2-DG Uptake AVE) [%]	remaining activity at 2.5 µM ([2]; HEK293, 4 min, GLUT8, concentration 2.500 µM, read-out: 2-DG Uptake AVE) [%]	remaining activity at 5 µM ([2]; HEK293, 4 min, GLUT8, concentration 5.0 µM, read-out: 2-DG Uptake AVE) [%]	remaining activity at 20 µM ([2]; HEK293, 4 min, GLUT8, concentration 20 µM, read-out: 2-DG Uptake AVE) [%]	remaining activity at 80 µM ([2]; HEK293, 4 min, GLUT8, concentration 80 µM, read-out: 2-DG Uptake AVE) [%]	remaining activity at 160 µM ([2]; HEK293, 4 min, GLUT8, concentration 160 µM, read-out: 2-DG Uptake AVE) [%]	remaining activity at 225 µM ([2]; HEK293, 4 min, GLUT8, concentration 225 µM, read-out: 2-DG Uptake AVE) [%]	Selectivity Index (PfHT over GLUT8), 2-DG ([2]; calculated from IC50s)
C=C1[C@@H](C)[C@H]2[C@H](Cc3ccccc3)NC(=O)[C@]23OC(=O)/C=C/[C@H](O)CCC[C@@H](C)C/C=C/[C@H]3[C@@H]1O [CB, cytochalasin B]	> 100	–	–	–	–	–	–	–	–	–	–	–	–	–	–
Cc1ccc(S(=O)(=O)CCNC(=O)c2c(-c3c(Cl)cccc3Cl)noc2C)cc1 [WU-1, 3-(2,6-dichlorophenyl)-5-methyl-N-[2-(4-methylbenzenesulfonyl)ethyl]-1,2-oxazole-4-carboxamide]	–	25	39.8 µM and 19.9 µM and 15.3 µM	25 ± 7.5	100	104	95.3	98.6	97.5	88	60.6	41.2	25.7	23.9	4.3

Reference: paper PMC6508677, “Identification of druggable small molecule antagonists of the Plasmodium falciparum hexose transporter PfHT and assessment of ligand access to the glucose permeation pathway via FLAG-mediated protein engineering” (PLoS ONE, 2019)
